Assay results taken from patent publication US11957759B1, “Rapidly accelerated fibrosarcoma (RAF) degrading compounds and associated methods of use” (Arvinas Operations, Inc., priority 2022, dated 2024).

Assays:
[1] = target: T1, B-RAF V600E (Homo sapiens, UniProt P15056, V600E); experiment: Target protein degradation, assay C: T-Rex 293 cells, HA-BRAF_V600E, 384 well format; format: cell-based; settings: T-Rex 293 HA-BRAF_V600E cells, 24 hours, Examples 83-269; for DC50: Assay C; for Dmax: T-REx-293, Assay C
T1 construct: expressed in transfected cells; host or cells: T-Rex 293 cells (Invitrogen #R71007)
How it was run: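 T-Rex 293 cells stably expressing doxycycline-induced (1 ng/mL) HA-BRAF V600E were treated 24 h at 37 °C with compound (300 nM–5 pM, 11 points, 0.5% DMSO). HA immunofluorescence was quantified by high-content imaging to give DC50 and Dmax (% of control); nuclei counts versus DMSO gauged toxicity.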

[2] = target: T2, B-RAF G466V (Homo sapiens, UniProt P15056, G466V); experiment: Target protein degradation, assay D: T-Rex 293 cells, HA-BRAF_G466V, 384 well format; format: cell-based; settings: T-Rex 293 HA-BRAF_G466V cells, 24 hours, Examples 83-269; for DC50: Assay D; for Dmax: T-REx-293, Assay D
T2 construct: expressed in transfected cells; host or cells: T-Rex 293 cells (Invitrogen #R71007)
How it was run: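 T-Rex 293 cells stably expressing doxycycline-induced (1 ng/mL) HA-BRAF G466V treated 24 h at 37 °C with PROTACs, 11-point 1:3 dilution, 300 nM to 5 pM final, 0.5% DMSO. Fixed cells immunostained for HA and imaged by high-content microscopy; DC50 and Dmax (% of control) derived, toxicity from nuclei counts versus DMSO.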

T2 sequence (P15056 whole entry G466V): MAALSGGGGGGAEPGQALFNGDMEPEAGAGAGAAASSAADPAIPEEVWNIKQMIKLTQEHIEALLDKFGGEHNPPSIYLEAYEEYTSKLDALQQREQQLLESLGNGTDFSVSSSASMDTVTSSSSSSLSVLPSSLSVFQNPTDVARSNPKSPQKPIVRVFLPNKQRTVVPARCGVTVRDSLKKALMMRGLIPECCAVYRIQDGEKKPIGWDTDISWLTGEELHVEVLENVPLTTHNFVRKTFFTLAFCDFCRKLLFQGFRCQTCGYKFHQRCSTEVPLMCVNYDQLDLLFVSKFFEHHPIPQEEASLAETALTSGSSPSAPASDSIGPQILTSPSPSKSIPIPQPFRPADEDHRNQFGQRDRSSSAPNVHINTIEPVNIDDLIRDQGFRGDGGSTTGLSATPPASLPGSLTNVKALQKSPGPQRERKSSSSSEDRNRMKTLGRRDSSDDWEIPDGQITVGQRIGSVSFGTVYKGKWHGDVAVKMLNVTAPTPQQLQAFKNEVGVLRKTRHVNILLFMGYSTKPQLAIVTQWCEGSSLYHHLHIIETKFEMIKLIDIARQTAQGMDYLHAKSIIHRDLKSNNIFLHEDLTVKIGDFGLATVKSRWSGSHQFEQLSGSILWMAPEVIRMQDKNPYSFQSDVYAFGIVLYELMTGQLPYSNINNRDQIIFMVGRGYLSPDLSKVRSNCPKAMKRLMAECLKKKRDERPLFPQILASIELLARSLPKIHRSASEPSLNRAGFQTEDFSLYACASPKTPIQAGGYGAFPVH
T1 sequence (P15056 whole entry V600E): as the sequence (P15056 whole entry G466V) above, with V466G, V600E counted along it

| DC50 [1] [µM] | Dmax [1] [%] | DC50 [2] [µM] | Dmax [2] [%] | Structure (SMILES) |
| --- | --- | --- | --- | --- |
| 0.005 to 0.05 | 35 to 70 | 0.001 to 0.01 | 35 to 70 | N#Cc1c(NS(=O)(=O)N2CC[C@@H](F)C2)ccc(F)c1Oc1ccc2ncn(-c3ccc(N4CCC(CN5CCC6(CC5)CCN(c5ccc7c(c5)C(=O)N(C5CCC(=O)NC5=O)C7=O)CC6)CC4)nc3)c(=O)c2c1 (stereo partly drawn) [Example 146, (3R)-N-{2-cyano-3-[(3-{6-[4-({9-[2-(2,6-dioxopiperidin-3-yl)-1,3-dioxo-2,3-dihydro-1H-isoindol-5-yl]-3,9-diazaspiro[5.5]undecan-3-yl}methyl)piperidin-1-yl]pyridin-3-yl}-4-oxo-3,4-dihydroquinazolin-6-yl)oxy]-4-fluorophenyl}-3-fluoropyrrolidine-1-sulfonamide] |
| 0.005 to 0.05 | 35 to 70 | 0.001 to 0.01 | 35 to 70 | N#Cc1c(NS(=O)(=O)N2CC[C@@H](F)C2)ccc(F)c1Oc1ccc2ncn(-c3ccc(N4CCC(CN5CCN(CC6CCN(c7ccc8c(c7)C(=O)N(C7CCC(=O)NC7=O)C8=O)CC6)CC5)CC4)nc3)c(=O)c2c1 (stereo partly drawn) [Example 147, (3R)-N-[2-cyano-3-({3-[6-(4-{[4-({1-[2-(2,6-dioxopiperidin-3-yl)-1,3-dioxo-2,3-dihydro-1H-isoindol-5-yl]piperidin-4-yl}methyl)piperazin-1-yl]methyl}piperidin-1-yl)pyridin-3-yl]-4-oxo-3,4-dihydroquinazolin-6-yl}oxy)-4-fluorophenyl]-3-fluoropyrrolidine-1-sulfonamide] |
| 0.05 to 0.5 | ≤ 35 | > 0.03 | – | N#Cc1c(NS(=O)(=O)N2CC[C@@H](F)C2)ccc(F)c1Oc1ccc2ncn(-c3ccc(N4CCC5(CCN(c6ccc7c(c6)C(=O)N(C6CCC(=O)NC6=O)C7=O)CC5)CC4)nc3)c(=O)c2c1 (stereo partly drawn) [Example 148, (3R)-N-(2-cyano-3-{[3-(6-{9-[2-(2,6-dioxopiperidin-3-yl)-1,3-dioxo-2,3-dihydro-1H-isoindol-5-yl]-3,9-diazaspiro[5.5]undecan-3-yl}pyridin-3-yl)-4-oxo-3,4-dihydroquinazolin-6-yl]oxy}-4-fluorophenyl)-3-fluoropyrrolidine-1-sulfonamide] |
| 0.005 to 0.05 | ≤ 35 | 0.01 to 0.03 | 35 to 70 | N#Cc1c(NS(=O)(=O)N2CC[C@@H](F)C2)ccc(F)c1Oc1ccc2ncn(-c3ccc(N4CCC(CN5CCC(Oc6ccc7c(c6)C(=O)N(C6CCC(=O)NC6=O)C7=O)CC5)CC4)nc3)c(=O)c2c1 (stereo partly drawn) [Example 149, (3R)-N-(2-cyano-3-{[3-(6-{4-[(4-{[2-(2,6-dioxopiperidin-3-yl)-1,3-dioxo-2,3-dihydro-1H-isoindol-5-yl]oxy}piperidin-1-yl)methyl]piperidin-1-yl}pyridin-3-yl)-4-oxo-3,4-dihydroquinazolin-6-yl]oxy}-4-fluorophenyl)-3-fluoropyrrolidine-1-sulfonamide] |
| ≤ 0.005 | 35 to 70 | ≤ 0.001 | ≤ 35 | N#Cc1c(NS(=O)(=O)N2CC[C@@H](F)C2)ccc(F)c1Oc1ccc2ncn(-c3ccc(N4CCN(CCCOc5cccc6c5C(=O)N(C5CCC(=O)NC5=O)C6=O)CC4)nc3)c(=O)c2c1 (stereo partly drawn) [Example 150, (3R)-N-{2-cyano-3-[(3-{6-[4-(3-{[2-(2,6-dioxopiperidin-3-yl)-1,3-dioxo-2,3-dihydro-1H-isoindol-4-yl]oxy}propyl)piperazin-1-yl]pyridin-3-yl}-4-oxo-3,4-dihydroquinazolin-6-yl)oxy]-4-fluorophenyl}-3-fluoropyrrolidine-1-sulfonamide] |
| 0.005 to 0.05 | 35 to 70 | 0.001 to 0.01 | 35 to 70 | N#Cc1c(NS(=O)(=O)N2CC[C@@H](F)C2)ccc(F)c1Oc1ccc2ncn(-c3cnc(N4CCN(CCN5CCN(c6ccc7c(c6)CN(C6CCC(=O)NC6=O)C7=O)CC5)CC4)nc3)c(=O)c2c1 (stereo partly drawn) [Example 151, (3R)-N-{2-cyano-3-[(3-{2-[4-(2-{4-[2-(2,6-dioxopiperidin-3-yl)-1-oxo-2,3-dihydro-1H-isoindol-5-yl]piperazin-1-yl}ethyl)piperazin-1-yl]pyrimidin-5-yl}-4-oxo-3,4-dihydroquinazolin-6-yl)oxy]-4-fluorophenyl}-3-fluoropyrrolidine-1-sulfonamide] |
| 0.05 to 0.5 | 35 to 70 | 0.001 to 0.01 | ≤ 35 | CC(C)(C1CCN(c2ncc(-n3cnc4ccc(Oc5c(F)ccc(NS(=O)(=O)N6CC[C@@H](F)C6)c5C#N)cc4c3=O)cn2)CC1)N1CCN(c2ccc3c(c2)C(=O)N(C2CCC(=O)NC2=O)C3=O)CC1 (stereo partly drawn) [Example 152, (3R)-N-{2-cyano-3-[(3-{2-[4-(2-{4-[2-(2,6-dioxopiperidin-3-yl)-1,3-dioxo-2,3-dihydro-1H-isoindol-5-yl]piperazin-1-yl}propan-2-yl)piperidin-1-yl]pyrimidin-5-yl}-4-oxo-3,4-dihydroquinazolin-6-yl)oxy]-4-fluorophenyl}-3-fluoropyrrolidine-1-sulfonamide] |
| 0.05 to 0.5 | 35 to 70 | > 0.03 | – | N#Cc1c(NS(=O)(=O)N2CC[C@@H](F)C2)ccc(F)c1Oc1ccc2ncn(-c3cnc(N4CCC(CN5CC6(C5)CN(c5cccc7c5C(=O)N(C5CCC(=O)NC5=O)C7=O)C6)CC4)nc3)c(=O)c2c1 (stereo partly drawn) [Example 153, (3R)-N-{2-cyano-3-[(3-{2-[4-({6-[2-(2,6-dioxopiperidin-3-yl)-1,3-dioxo-2,3-dihydro-1H-isoindol-4-yl]-2,6-diazaspiro[3.3]heptan-2-yl}methyl)piperidin-1-yl]pyrimidin-5-yl}-4-oxo-3,4-dihydroquinazolin-6-yl)oxy]-4-fluorophenyl}-3-fluoropyrrolidine-1-sulfonamide] |
| 0.05 to 0.5 | ≤ 35 | 0.01 to 0.03 | ≤ 35 | N#Cc1c(NS(=O)(=O)N2CC[C@@H](F)C2)ccc(F)c1Oc1ccc2ncn(-c3cnc(N4CC5(CN(CC6CCN(c7cccc8c7C(=O)N(C7CCC(=O)NC7=O)C8=O)CC6)C5)C4)nc3)c(=O)c2c1 (stereo partly drawn) [Example 154, (3R)-N-{2-cyano-3-[(3-(2-[6-({1-[2-(2,6-dioxopiperidin-3-yl)-1,3-dioxo-2,3-dihydro-1H-isoindol-4-yl]piperidin-4-yl}methyl)-2,6-diazaspiro[3.3]heptan-2-yl]pyrimidin-5-yl}-4-oxo-3,4-dihydroquinazolin-6-yl)oxy]-4-fluorophenyl}-3-fluoropyrrolidine-1-sulfonamide] |
| > 0.5 | – | 0.001 to 0.01 | ≤ 35 | N#Cc1c(NS(=O)(=O)N2CC[C@@H](F)C2)ccc(F)c1Oc1ccc2ncn(-c3cnc(N4CCC(C5CN(c6ccc7c(c6)C(=O)N(C6CCC(=O)NC6=O)C7=O)C5)CC4)nc3)c(=O)c2c1 (stereo partly drawn) [Example 155] |
| 0.05 to 0.5 | 35 to 70 | > 0.03 | – | N#Cc1c(NS(=O)(=O)N2CC[C@@H](F)C2)ccc(F)c1Oc1ccc2ncn(-c3cnc(N4CCC(CC5CCCN5c5ccc6c(c5)C(=O)N(C5CCC(=O)NC5=O)C6=O)CC4)nc3)c(=O)c2c1 (stereo partly drawn) [Example 156, (3R)-N-{2-cyano-3-[(3-{2-[4-({1-[2-(2,6-dioxopiperidin-3-yl)-1,3-dioxo-2,3-dihydro-1H-isoindol-5-yl]pyrrolidin-2-yl}methyl)piperidin-1-yl]pyrimidin-5-yl}-4-oxo-3,4-dihydroquinazolin-6-yl)oxy]-4-fluorophenyl}-3-fluoropyrrolidine-1-sulfonamide] |
| 0.05 to 0.5 | 35 to 70 | > 0.03 | – | N#Cc1c(NS(=O)(=O)N2CC[C@@H](F)C2)ccc(F)c1Oc1ccc2ncn(-c3ccc(NC4CCN(c5ccc6c(c5)C(=O)N(C5CCC(=O)NC5=O)C6=O)CC4)nc3)c(=O)c2c1 (stereo partly drawn) [Example 157, (3R)-N-[2-cyano-3-({3-[6-({1-[2-(2,6-dioxopiperidin-3-yl)-1,3-dioxo-2,3-dihydro-1H-isoindol-5-yl]piperidin-4-yl}amino)pyridin-3-yl]-4-oxo-3,4-dihydroquinazolin-6-yl}oxy)-4-fluorophenyl]-3-fluoropyrrolidine-1-sulfonamide] |
| 0.05 to 0.5 | ≤ 35 | ≤ 0.001 | ≤ 35 | N#Cc1c(NS(=O)(=O)N2CC[C@@H](F)C2)ccc(F)c1Oc1ccc2ncn(-c3ccc(N4CC(C5CN(c6ccc7c(c6)C(=O)N(C6CCC(=O)NC6=O)C7=O)C5)C4)nc3)c(=O)c2c1 (stereo partly drawn) [Example 158, (3R)-N-(2-cyano-3-{[3-(6-{1'-[2-(2,6-dioxopiperidin-3-yl)-1,3-dioxo-2,3-dihydro-1H-isoindol-5-yl]-[3,3'-biazetidin]-1-yl}pyridin-3-yl)-4-oxo-3,4-dihydroquinazolin-6-yl]oxy}-4-fluorophenyl)-3-fluoropyrrolidine-1-sulfonamide] |
| 0.05 to 0.5 | 35 to 70 | 0.001 to 0.01 | ≤ 35 | N#Cc1c(NS(=O)(=O)N2CC[C@@H](F)C2)ccc(F)c1Oc1ccc2ncn(-c3ccc(N4CC(CC5CN(c6ccc7c(c6)C(=O)N(C6CCC(=O)NC6=O)C7=O)C5)C4)nc3)c(=O)c2c1 (stereo partly drawn) [Example 159, (3R)-N-{2-cyano-3-[(3-{6-[3-({1-[2-(2,6-dioxopiperidin-3-yl)-1,3-dioxo-2,3-dihydro-1H-isoindol-5-yl]azetidin-3-yl}methyl)azetidin-1-yl]pyridin-3-yl}-4-oxo-3,4-dihydroquinazolin-6-yl)oxy]-4-fluorophenyl}-3-fluoropyrrolidine-1-sulfonamide] |
